Data taken from ChEMBL document CHEMBL1201862, “PubChem BioAssay data set” (2004).
Calls of active or inactive are those of the source.

Legend:
Caspase-6 = biological target: T1, Caspase-6 (Homo sapiens, UniProt P55212); experiment: human caspase-6 inhibitors, dose response, biochemical, VEID-R110 fluorescence, cherry-pick (AID 720632)
T1 sequence (P55212 whole entry): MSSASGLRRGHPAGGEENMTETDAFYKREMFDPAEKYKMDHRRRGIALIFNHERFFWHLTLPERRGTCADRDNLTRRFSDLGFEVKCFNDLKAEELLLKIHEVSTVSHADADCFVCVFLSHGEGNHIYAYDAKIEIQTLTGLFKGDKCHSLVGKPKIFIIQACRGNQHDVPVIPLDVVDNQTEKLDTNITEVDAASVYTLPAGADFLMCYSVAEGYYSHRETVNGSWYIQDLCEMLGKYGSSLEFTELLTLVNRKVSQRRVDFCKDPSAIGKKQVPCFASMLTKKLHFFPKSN

[1] = inhibitors of HIV Env-driven cell fusion, dose response, cherry-pick (AID 652057); type: functional, cell-based
[2] = inhibitors of clade B AD8 Env fusion, dose response, cell-based, cherry-pick (AID 652062); type: functional;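 further: luciferase signal from cell-cell fusion driven by HIV-1 clade B AD8 Env; potency is for inhibitors of fusion seen as a drop in luminescence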
[3] = inhibitors of SNCA 5'UTR-driven reporter translation, confirmation, H4 neuroglioma cells, luminescence (AID 1988); type: functional, cell-based
[4] = inhibitors of firefly luciferase expression or activity, dose response, H4 neuroglioma cells, luminescence (AID 1990); type: functional, cell-based
[5] = cytotoxicity in HEK-293T cells, dose response, cytotoxicity control for TCR NF-kB inhibitor project, luminescence, T-cell screen hits (AID 489026); type: functional, cell-based;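 further: cells exposed to compound about 14 hours before the viability readout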
[6] = Luminescence Cell-Based Dose Response HTS to Identify Inhibitors of 5'UTR Stem-Loop Driven Prion Protein mRNA Translation in H4 Neuroglioblastoma Cells. [Related pubchem assays: 1827 (Project Summary), 1813 (Primary HTS)]; type: functional
[7] = biological target: T2, Long-chain-fatty-acid--AMP ligase FadD28 (Mycobacterium tuberculosis, UniProt P9WQ59); experiment: Fluorescence polarization aasay to screen for inhibitors that compete for the binding of FadD28 to a bisubstrate Measured in Biochemical System Using Plate Reader - 2147-01_Inhibitor_Dose_CherryPick_Activity.; type: functional, Mycobacterium tuberculosis H37Rv
T2 sequence (P9WQ59 whole entry): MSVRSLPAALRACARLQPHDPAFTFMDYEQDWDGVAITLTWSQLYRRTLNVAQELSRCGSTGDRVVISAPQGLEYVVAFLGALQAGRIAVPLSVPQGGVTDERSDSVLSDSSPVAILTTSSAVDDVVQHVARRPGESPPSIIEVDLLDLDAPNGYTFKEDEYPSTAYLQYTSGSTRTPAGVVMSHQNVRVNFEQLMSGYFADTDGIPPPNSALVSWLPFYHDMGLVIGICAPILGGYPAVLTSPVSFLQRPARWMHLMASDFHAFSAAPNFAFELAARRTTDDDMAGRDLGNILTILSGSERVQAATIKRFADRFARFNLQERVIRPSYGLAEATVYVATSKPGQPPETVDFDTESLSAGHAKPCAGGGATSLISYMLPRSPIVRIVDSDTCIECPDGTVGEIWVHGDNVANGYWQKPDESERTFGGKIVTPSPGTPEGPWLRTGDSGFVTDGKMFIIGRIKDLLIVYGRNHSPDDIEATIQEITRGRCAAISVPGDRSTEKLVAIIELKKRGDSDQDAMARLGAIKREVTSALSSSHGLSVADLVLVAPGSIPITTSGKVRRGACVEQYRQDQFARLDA

INS1 = experiment: beta cell apoptosis inhibitors, cytokine rescue, dose response, luminescence, retest (AID 449756); type: functional, cell-based; conditions: Rattus norvegicus;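 further: cell death triggered by IL-1 beta plus TNF-alpha plus IFN-gamma mixture; protective hits raise ATP signal compared with cytokine alone wells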
[8] = HepG2 cell cytotoxicity, dose response, cytotoxicity control for Shn3 inhibitor project, CellTiter-Glo, cherry-picked (AID 624134); type: functional, cell-based
[9] = Shn3 3'UTR reporter inhibitors, dose response, cell-based, Clone20 osteoblasts, firefly luciferase, cherry-picked (AID 624132); type: functional;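 further: firefly luciferase luminescence from reporter carrying the Shn3 3'UTR in osteoblasts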
[10] = control 3'UTR Renilla luciferase suppression, dose response, counter-screen for Shn3 inhibitor project, cell-based, Clone20-Shn3RL, cherry-picked (AID 624133); type: functional
Cytochrome P450 1A2 = biological target: T3, Cytochrome P450 1A2 (Homo sapiens, UniProt P05177);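 further: PubChem cytochrome P450 panel assay, CYP1A2 panel member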
T3 sequence (P05177 whole entry): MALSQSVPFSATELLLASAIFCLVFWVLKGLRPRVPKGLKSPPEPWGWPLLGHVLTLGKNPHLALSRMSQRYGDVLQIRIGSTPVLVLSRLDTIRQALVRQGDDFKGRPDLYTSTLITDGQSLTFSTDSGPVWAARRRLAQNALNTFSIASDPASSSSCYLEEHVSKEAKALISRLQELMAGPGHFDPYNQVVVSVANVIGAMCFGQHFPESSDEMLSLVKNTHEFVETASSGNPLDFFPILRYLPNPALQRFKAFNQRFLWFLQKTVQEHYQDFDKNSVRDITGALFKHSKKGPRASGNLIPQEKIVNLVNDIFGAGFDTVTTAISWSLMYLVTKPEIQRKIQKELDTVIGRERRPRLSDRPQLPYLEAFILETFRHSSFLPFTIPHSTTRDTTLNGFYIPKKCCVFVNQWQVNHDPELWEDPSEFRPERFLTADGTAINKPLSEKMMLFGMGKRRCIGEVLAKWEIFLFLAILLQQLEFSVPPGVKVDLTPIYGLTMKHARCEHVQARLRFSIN

[11] = biological target: T4, Histone-lysine N-methyltransferase NSD2 (Homo sapiens, UniProt O96028); type: biochemical
T4 sequence (O96028 whole entry): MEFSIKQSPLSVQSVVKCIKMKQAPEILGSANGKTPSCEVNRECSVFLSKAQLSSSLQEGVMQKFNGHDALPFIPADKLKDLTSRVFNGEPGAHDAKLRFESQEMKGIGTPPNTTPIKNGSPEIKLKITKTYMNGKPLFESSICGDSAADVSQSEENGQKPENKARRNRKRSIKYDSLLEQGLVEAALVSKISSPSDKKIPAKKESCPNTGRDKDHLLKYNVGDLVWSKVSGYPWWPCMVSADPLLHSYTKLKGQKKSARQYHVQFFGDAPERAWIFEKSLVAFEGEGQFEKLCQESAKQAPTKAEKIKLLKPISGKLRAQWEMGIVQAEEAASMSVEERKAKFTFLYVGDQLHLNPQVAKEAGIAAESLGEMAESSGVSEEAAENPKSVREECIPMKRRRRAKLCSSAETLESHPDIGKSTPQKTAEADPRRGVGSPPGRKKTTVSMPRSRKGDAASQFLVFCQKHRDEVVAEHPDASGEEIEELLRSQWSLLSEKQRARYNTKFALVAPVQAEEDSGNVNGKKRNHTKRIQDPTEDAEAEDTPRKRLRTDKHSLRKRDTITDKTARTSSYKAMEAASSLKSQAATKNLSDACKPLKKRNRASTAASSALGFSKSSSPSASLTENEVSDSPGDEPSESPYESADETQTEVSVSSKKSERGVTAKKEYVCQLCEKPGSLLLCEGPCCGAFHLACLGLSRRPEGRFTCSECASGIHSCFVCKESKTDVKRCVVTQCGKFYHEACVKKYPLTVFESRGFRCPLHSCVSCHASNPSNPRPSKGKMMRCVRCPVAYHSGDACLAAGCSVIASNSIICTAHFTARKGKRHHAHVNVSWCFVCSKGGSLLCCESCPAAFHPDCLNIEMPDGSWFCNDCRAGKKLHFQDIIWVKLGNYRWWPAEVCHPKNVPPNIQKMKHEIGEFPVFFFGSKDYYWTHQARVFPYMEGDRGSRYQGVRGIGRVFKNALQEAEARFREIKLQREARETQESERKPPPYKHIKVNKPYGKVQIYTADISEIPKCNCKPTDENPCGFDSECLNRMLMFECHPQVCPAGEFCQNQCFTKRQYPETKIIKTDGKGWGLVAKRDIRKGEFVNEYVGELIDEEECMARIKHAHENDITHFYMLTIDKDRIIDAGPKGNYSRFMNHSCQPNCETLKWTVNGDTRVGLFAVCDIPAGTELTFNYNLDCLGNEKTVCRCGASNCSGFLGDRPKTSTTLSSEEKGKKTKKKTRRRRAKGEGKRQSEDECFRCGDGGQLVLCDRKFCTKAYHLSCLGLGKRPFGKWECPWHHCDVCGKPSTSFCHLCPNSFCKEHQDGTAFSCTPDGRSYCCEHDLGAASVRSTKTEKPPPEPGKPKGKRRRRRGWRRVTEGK

[12] = biological target: T5, DNA repair protein RAD52 homolog (Homo sapiens, UniProt P43351); type: functional, biochemical
T5 sequence (P43351 whole entry): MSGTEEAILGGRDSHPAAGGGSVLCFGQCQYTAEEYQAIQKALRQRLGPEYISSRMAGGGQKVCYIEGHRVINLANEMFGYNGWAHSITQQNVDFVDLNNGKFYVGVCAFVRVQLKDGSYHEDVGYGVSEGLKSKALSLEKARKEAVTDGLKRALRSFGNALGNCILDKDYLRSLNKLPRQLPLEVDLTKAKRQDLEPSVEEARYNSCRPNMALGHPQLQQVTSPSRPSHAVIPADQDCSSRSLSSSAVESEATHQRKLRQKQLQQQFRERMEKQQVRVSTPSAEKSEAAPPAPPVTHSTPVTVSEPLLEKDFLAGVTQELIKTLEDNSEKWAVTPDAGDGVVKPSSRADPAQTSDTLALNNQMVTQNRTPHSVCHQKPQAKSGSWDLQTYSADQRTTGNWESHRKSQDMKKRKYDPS

[13] = biological target: T6, Carboxy-terminal domain RNA polymerase II polypeptide A small phosphatase 1 (Homo sapiens, UniProt Q9GZU7); experiment: inhibitors of CTDSP1, concentration-response testing, biochemical assay, absorbance-based, actives from ultra-high-throughput screening (AID 540297); type: functional
T6 sequence (Q9GZU7 whole entry): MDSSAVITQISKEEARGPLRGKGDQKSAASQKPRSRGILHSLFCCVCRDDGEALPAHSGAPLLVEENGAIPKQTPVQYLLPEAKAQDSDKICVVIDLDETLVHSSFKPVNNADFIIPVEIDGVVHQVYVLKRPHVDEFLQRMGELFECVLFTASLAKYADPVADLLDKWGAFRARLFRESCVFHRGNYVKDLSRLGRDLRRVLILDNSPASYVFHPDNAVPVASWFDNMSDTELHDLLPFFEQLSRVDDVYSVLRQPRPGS

[14] = ZM109 Env clade C HIV-1 fusion inhibitors, dose response, HeLa effector, CEM target cells, luciferase, cherry-pick (AID 652058); type: functional, cell-based

CCO/C=C1/C(=O)N(c2ccccc2OC)C(=O)c2ccccc21
AC50 (Caspase-6): 13.9 µM (active)

Cc1ccc(-c2ccc3c(c2)O[C@@H](CN(C)Cc2ccncc2)[C@H](C)CN([C@H](C)CO)S3(=O)=O)cc1
AC50 [1]: 10.2 µM (active) | AC50 [2]: 14.2 µM (active)

COCCCNC(=O)C(=O)Nc1ccc2c(c1)N(S(=O)(=O)c1cccs1)CCC2
EC50 [3]: 0.419 µM (active) | EC50 [4]: 4.45 µM (inconclusive) | IC50 [5]: > 80 µM (inactive) | EC50 [6]: 6.86 µM (active)

Cc1cccc(CSCCNC(=O)c2ccc(N(C)S(=O)(=O)c3ccccc3)cc2)c1
AC50 [7]: > 100 µM (inactive)

CCOC(=O)N/N=C/c1c(C)nn(-c2cccc(C(F)(F)F)c2)c1Cl
IC50 [5]: 69.6 µM (inactive)

CC(C)Cn1c(N)c(C(=O)CSc2ccc3c(c2)OCCO3)c(=O)n(C)c1=O
AC50 (INS1): 2.98 µM (active) | AC50 [8]: 1.74 µM (active) | AC50 [9]: 0.674 µM (active) | AC50 [10]: 1.57 µM (active) | AC50 (Cytochrome P450 1A2): 31.6 µM (inconclusive) | IC50 [5]: > 80 µM (inactive)

Cc1ccc(NC(=O)Nc2sc(=S)n(C)c2C)cc1
AC50 [7]: > 100 µM (inactive)

CCN(CC)CCCN(Cc1cc2cc3c(cc2nc1O)OCO3)C(S)=NCCCOC
AC50 [11]: > 20 µM (inactive)

COc1ccc(C(=O)Cn2c(=O)oc3ccc(C)cc32)cc1
AC50 [7]: 36.7 µM (active)

COc1ccccc1/N=C(\C)C1=C(O)CC(c2ccccc2)CC1=O (centres undefined)
IC50 [5]: > 80 µM (inactive)

C[C@H](CO)N1C[C@H](C)[C@@H](CN(C)C(=O)Nc2cccc(C(F)(F)F)c2)OCc2ccccc2-c2ccccc2C1=O
AC50 [1]: < 0.285 µM (active) | AC50 [2]: 0.346 µM (active)

Cc1cc(N2CCN(C)CC2)nc2ccc(NC(S)=NCc3cccs3)cc12
AC50 [12]: 17 µM (active)

CC(C)n1c(CN(C)Cc2ccccc2)nc2c1c(=O)n(C)c(=O)n2C
EC50 [3]: > 120 µM (not active) | EC50 [4]: 43 µM (active) | IC50 [5]: > 80 µM (inactive) | EC50 [6]: > 120 µM (not active)

Cc1cccc(N2CCN(C(=O)c3ccc(S(=O)(=O)N(C)c4ccccc4)cc3)CC2)c1C
IC50 [13]: 12 µM (active) | IC50 [5]: > 80 µM (inactive)

Cc1cc2nc(NC(=N)N)nc(C)c2cc1C
AC50 [12]: 3.41 µM (active)

CCNc1ncnc2c1cnn2C1CCCO1 (centres undefined)
AC50 [14]: 13.5 µM (active)

O=C(O)C1C2C=CC(C2)C1C(=O)Nc1ccccc1Br (centres undefined)
IC50 [13]: 16.7 µM (active) | AC50 (Caspase-6): 6.78 µM (active)

COc1ccc(NS(=O)(=O)c2cc(NC(=O)COc3ccccc3)ccc2N2CCOCC2)cc1
AC50 [7]: > 100 µM (inactive)

O=C(NCCCc1nc2ccccc2[nH]1)c1ccco1
AC50 [1]: 48.8 µM (active) | AC50 [14]: 1.61 µM (active)

COc1ccc(CCNc2cc(N3CCN(C(=O)c4ccccc4F)CC3)ccc2[N+](=O)[O-])cc1OC
AC50 [8]: 0.845 µM (active) | AC50 [9]: 1.26 µM (active) | AC50 [10]: 0.811 µM (active) | IC50 [5]: > 80 µM (inactive)
